Test results taken from PubChem BioAssay AID1963868 (Molecular Pharmacology Branch, DTP, NCI, 2024).

Tested on: KRAS PDC tumor spheroids (HUVEC+MSC), viability
Assay: Anticancer human tumor 254851-301-R-J1-PDC patient-derived colon carcinoma cell line growth inhibition [KRAS2]
Details: for viability, T/C: stronger effect = lower value
In short: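 KRAS-mutant tumor cells were grown as spheroids with HUVEC endothelial cells and human MSCs as stroma. Targeted agents were tested alone and with KRAS pathway inhibitors. Doses started at or near clinical Cmax, or 10 microM, descending half-log.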

[1] = curve of first compound, second compound 0.1 µM
[2] = curve of first compound, second compound 0.316 µM
[3] = curve of first compound, second compound 1 µM
[4] = curve of first compound, second compound 3.16 µM
[5] = curve of first compound, second compound 10 µM
[6] = second compound 0.1 µM, first compound 0.0316 µM
[7] = second compound 0.1 µM, first compound 0.1 µM
[8] = second compound 0.1 µM, first compound 0.316 µM
[9] = second compound 0.1 µM, first compound 1 µM
[10] = second compound 0.1 µM, first compound 3.16 µM
[11] = second compound 0.1 µM, first compound 10 µM
[12] = second compound 0.316 µM, first compound 0.0316 µM
[13] = second compound 0.316 µM, first compound 0.1 µM
[14] = second compound 0.316 µM, first compound 0.316 µM
[15] = second compound 0.316 µM, first compound 1 µM
[16] = second compound 0.316 µM, first compound 3.16 µM
[17] = second compound 0.316 µM, first compound 10 µM
[18] = second compound 1 µM, first compound 0.0316 µM
[19] = second compound 1 µM, first compound 0.1 µM
[20] = second compound 1 µM, first compound 0.316 µM
[21] = second compound 1 µM, first compound 1 µM
[22] = second compound 1 µM, first compound 3.16 µM
[23] = second compound 1 µM, first compound 10 µM
[24] = second compound 3.16 µM, first compound 0.0316 µM
[25] = second compound 3.16 µM, first compound 0.1 µM
[26] = second compound 3.16 µM, first compound 0.316 µM
[27] = second compound 3.16 µM, first compound 1 µM
[28] = second compound 3.16 µM, first compound 3.16 µM
[29] = second compound 3.16 µM, first compound 10 µM
[30] = second compound 10 µM, first compound 0.0316 µM
[31] = second compound 10 µM, first compound 0.1 µM
[32] = second compound 10 µM, first compound 0.316 µM
[33] = second compound 10 µM, first compound 1 µM
[34] = second compound 10 µM, first compound 3.16 µM
[35] = second compound 10 µM, first compound 10 µM
[36] = second compound 0.1 µM, first compound 0.01 µM
[37] = second compound 0.316 µM, first compound 0.01 µM
[38] = second compound 1 µM, first compound 0.01 µM
[39] = second compound 3.16 µM, first compound 0.01 µM
[40] = second compound 10 µM, first compound 0.01 µM
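Note: spheroids exposed to compounds for seven days before readout.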
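Throughout, for viability, T/C: 100% = DMSO vehicle control luminescence of the spheroids.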

Row | SMILES | IC50 [1] | IC50 [2] | IC50 [3] | IC50 [4] | IC50 [5] | viability, T/C [6] | viability, T/C [7] | viability, T/C [8] | viability, T/C [9] | viability, T/C [10] | viability, T/C [12] | viability, T/C [13] | viability, T/C [14] | viability, T/C [15] | viability, T/C [18] | viability, T/C [19] | viability, T/C [24] | viability, T/C [25] | viability, T/C [30] | viability, T/C [31] | also measured
1 | O=C(c1cc(Cc2n[nH]c(=O)c3ccccc23)ccc1F)N1CCN(C(=O)C2CC2)CC1 + C=CC(=O)N1CCN(c2nc(=O)n(-c3c(C)ccnc3C(C)C)c3nc(-c4c(O)cccc4F)c(F)cc23)C(C)C1 | > 10000 nM | > 10000 nM | > 10000 nM | > 10000 nM | > 10000 nM | 104% | 100% | 101% | 103% | 95.6% | 116% | 104% | 96% | 97% | 111% | 101% | 106% | 102% | 107% | 114% | viability, T/C [11]: 89.5%; viability, T/C [16]: 101%; viability, T/C [17]: 97.2%; viability, T/C [20]: 111%; viability, T/C [21]: 104%; viability, T/C [22]: 106%; viability, T/C [23]: 92%; viability, T/C [26]: 105%; viability, T/C [27]: 100%; viability, T/C [28]: 102%; viability, T/C [29]: 95.7%; viability, T/C [32]: 105%; viability, T/C [33]: 110%; viability, T/C [34]: 101%; viability, T/C [35]: 107%
2 | CC1COCCN1c1cc(-c2ccnn2C)c2ccnc(-c3ccn[nH]3)c2n1 (configuration not stated) + CNCc1ccccc1-c1csc(C(C)Nc2nc(C)nc3cc(OC)c(OC)cc23)c1 | 278 nM | 217 nM | 252 nM | < 10 nM | < 10 nM | 103% | 60.1% | 50.7% | 36% | 20.1% | 93.9% | 64.4% | 42.9% | 34.3% | 93.4% | 70.4% | 35.2% | 31.2% | 0.08% | 0.07% | viability, T/C [36]: 107%; viability, T/C [37]: 91.9%; viability, T/C [16]: 25.9%; viability, T/C [38]: 95.5%; viability, T/C [20]: 44.9%; viability, T/C [21]: 31%; viability, T/C [22]: 24.1%; viability, T/C [39]: 44.1%; viability, T/C [26]: 14.6%; viability, T/C [27]: 26.8%; viability, T/C [28]: 17%; viability, T/C [40]: 0.08%; viability, T/C [32]: 0.99%; viability, T/C [33]: 0.07%; viability, T/C [34]: 0.12%
3 | CC(C)n1nc(-c2ccc3oc(N)nc3c2)c2c(N)ncnc21 + C=CC(=O)N1CCN(c2nc(=O)n(-c3c(C)ccnc3C(C)C)c3nc(-c4c(O)cccc4F)c(F)cc23)C(C)C1 | 19.1 nM | 21.6 nM | 13.3 nM | 20.1 nM | 18.1 nM | 32.3% | 19.8% |  |  |  | 39.8% | 23.1% |  |  | 34.3% | 21.9% | 34.7% | 22.8% | 35.1% | 24% | viability, T/C (second compound 0.1 µM, first compound 0.000316 µM): 107%; viability, T/C (second compound 0.1 µM, first compound 0.001 µM): 110%; viability, T/C (second compound 0.1 µM, first compound 0.00316 µM): 92.8%; viability, T/C [36]: 72.8%; viability, T/C (second compound 0.316 µM, first compound 0.000316 µM): 105%; viability, T/C (second compound 0.316 µM, first compound 0.001 µM): 104%; viability, T/C (second compound 0.316 µM, first compound 0.00316 µM): 97.7%; viability, T/C [37]: 71.2%; viability, T/C (second compound 1 µM, first compound 0.000316 µM): 116%; viability, T/C (second compound 1 µM, first compound 0.001 µM): 113%; viability, T/C (second compound 1 µM, first compound 0.00316 µM): 102%; viability, T/C [38]: 54.7%; viability, T/C (second compound 3.16 µM, first compound 0.000316 µM): 103%; viability, T/C (second compound 3.16 µM, first compound 0.001 µM): 117%; viability, T/C (second compound 3.16 µM, first compound 0.00316 µM): 89.7%; viability, T/C [39]: 73.5%; viability, T/C (second compound 10 µM, first compound 0.000316 µM): 98.9%; viability, T/C (second compound 10 µM, first compound 0.001 µM): 109%; viability, T/C (second compound 10 µM, first compound 0.00316 µM): 88.5%; viability, T/C [40]: 66.4%
4 | COC(=O)c1ccc2c(C(=Nc3ccc(N(C)C(=O)CN4CCN(C)CC4)cc3)c3ccccc3)c(O)[nH]c2c1 + COc1cc2nc(C)nc(NC(C)c3cc(N)cc(C(F)(F)F)c3)c2cc1OC1CCOC1 | > 10000 nM | > 10000 nM | > 10000 nM | 3850 nM | 1240 nM | 90.9% | 102% | 89% | 85.3% | 98.7% | 88% | 95% | 92.5% | 86.1% | 86.9% | 90.5% | 93.2% | 85.9% | 82.7% | 87% | viability, T/C [11]: 87%; viability, T/C [16]: 90.2%; viability, T/C [17]: 90.4%; viability, T/C [20]: 83.3%; viability, T/C [21]: 77.7%; viability, T/C [22]: 80.1%; viability, T/C [23]: 73%; viability, T/C [26]: 88.9%; viability, T/C [27]: 80.2%; viability, T/C [28]: 59.2%; viability, T/C [29]: 6.26%; viability, T/C [32]: 77.8%; viability, T/C [33]: 61.3%; viability, T/C [34]: 1.22%; viability, T/C [35]: 0.29%
5 | CC(=O)Nc1cccc(-n2c(=O)n(C3CC3)c(=O)c3c(Nc4ccc(I)cc4F)n(C)c(=O)c(C)c32)c1 |  |  |  |  |  |  |  |  |  |  |  |  |  |  |  |  |  |  |  |  | viability, T/C (compound 0.0001 µM): 105% [middle of 5 runs]; viability, T/C (compound 0.000316 µM): 96.8% [middle of 5 runs]; viability, T/C (compound 0.001 µM): 91.9% [middle of 5 runs]; viability, T/C (compound 0.00316 µM): 75.8% [middle of 5 runs]; viability, T/C (compound 0.01 µM): 26.8% [middle of 5 runs]; viability, T/C (compound 0.0316 µM): 3.1% [middle of 5 runs]; IC50 (curve of compound): 5.78 nM [middle of 5 runs]
